Earlier results on 5 compounds are cited in patent US10010502B2, “Device that delivers a sustained low-dose of a myopia-suppressing drug, while preserving pupillary function and accommodation” (AMORPHEX THERAPEUTICS LLC, priority 2015, dated 2018).

Each structure is given as a SMILES string. Entries after “also recorded” stand apart in the source; their conditions may differ. A value given as a limit tells only on which side of the number the result lay.

For data set [1], the system named is myopia progression.
Data set [2] deals with muscarinic receptors of the pupil and ciliary body.
The test system of data set [3] is childhood myopia. Conditions: 68 myopic children, oral dose of 400 mg.
Data set [4] concerns myopia progression. This is another data set of the same source.

As to `CN1CCc2cccc3c2[C@H]1Cc1ccc(O)c(O)c1-3` [apomorphine], the “myopia progression in animal models” value in data set [1] is on record as “retard myopia progression”.

As to `CN1CCN(CC(=O)N2c3ccccc3C(=O)Nc3cccnc32)CC1` [pirenzepine], in data set [2], the “activity at muscarinic receptors of the pupil and ciliary body relative to atropine” value was “less active at the muscarinic receptors of the pupil and ciliary body than atropine”.

Regarding `Cn1cnc2[nH]c(=O)[nH]c(=O)c21` [7-methylxanthine], in data set [3], the “eye elongation and myopia progression” value was “reduce eye elongation and myopia progression”; the “safety / adverse effects” value is “safe and without side effects; also recorded: no reported adverse effects”.

For `CN1[C@@H]2CC[C@H]1C[C@@H](OC(=O)C(CO)c1ccccc1)C2` (some centres unmarked) [atropine], in data set [4] (0.01% drops), the glare symptoms result was “some mild glare symptoms” and the “visual acuity, quality of life, reading speed” value is “no decrease in visual acuity, quality of life or reading speed”. Moreover, the myopia progression in data set [4] (eye drop concentrations of 0.5% and 1.0%) was at most 0.2 diopters/year. Besides, in data set [4] (lower dose atropine drops, normal light conditions), the “increase in pupil size easily tolerated by children” value is recorded as 1 mm. In data set [4] (lowest dose eye drops studied, 0.01%), the “effect on myopia progression” value is “less-than-optimal but measureable effect”. Besides, in data set [4] (one eye drop), the “duration of dilation after one drop” value is on record as “several days or even a week or more”.

For `N[C@@H](Cc1ccc(O)c(O)c1)C(=O)O` [levodopa], the “myopia progression in animal models” value in data set [1] was “retard myopia progression”.
